Assays:
Test in all cases: relative viability (nuclei count vs DMSO), 5 days (fraction); higher = more cells survive
[1] = compound: CC[C@H](C)N1C=C(C2=C(C=C(C=C21)C3=CN=C(C=C3)N4CCNCC4)C(=O)NCC5=C(C=C(NC5=O)C)C)C [GSK126] + CC1(C)CCC(c2ccc(Cl)cc2)=C(CN2CCN(c3ccc(C(=O)NS(=O)(=O)c4ccc(N[C@H](CCN5CCOCC5)CSc5ccccc5)c(S(=O)(=O)C(F)(F)F)c4)cc3)CC2)C1 [Navitoclax] (partner 0.5 µM)
How it was run: (§1)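 One day after seeding in 1536-well plates, lung cancer cell lines were dosed by pin tool. Dosing was either single-drug or a fixed anchor-drug dose plus five library-drug doses (not always all listed) in √10 steps. After 5 days, nuclei were stained in one fix-and-stain step and counted on 4× images, and relative viability is the nuclei count of treated wells over that of vehicle wells, given as the median of duplicate plates.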

[2] = compound: NS(=O)(=O)OC[C@@H]1C[C@@H](n2ccc3c(N[C@H]4CCc5ccccc54)ncnc32)C[C@@H]1O [MLN4924] + NC(=O)Nc1cc(-c2cccc(F)c2)sc1C(=O)N[C@H]1CCCNC1 [AZD7762] (partner 0.2 µM)
How it was run: as §1

[3] = compound: CC[C@H](C)N1C=C(C2=C(C=C(C=C21)C3=CN=C(C=C3)N4CCNCC4)C(=O)NCC5=C(C=C(NC5=O)C)C)C [GSK126] + CC(=O)c1c(C)c2cnc(Nc3ccc(N4CCNCC4)cn3)nc2n(C2CCCC2)c1=O [Palbociclib] (partner 0.5 µM)
How it was run: as §1

[4] = compound: C1CC(C1)(C(=O)O)C(=O)O.[NH2-].[NH2-].[Pt+2] [Carboplatin] + Cc1nc(Nc2ncc(C(=O)Nc3c(C)cccc3Cl)s2)cc(N2CCN(CCO)CC2)n1 [Dasatinib] (partner 0.075 µM)
How it was run: as §1

Cell Line | relative viability ([1]; first compound 0.08 µM) | relative viability ([1]; first compound 0.253 µM) | relative viability ([1]; first compound 0.8 µM) | relative viability ([1]; first compound 2.53 µM) | relative viability ([1]; first compound 8 µM) | relative viability ([2]; first compound 0.04 µM) | relative viability ([2]; first compound 0.1265 µM) | relative viability ([2]; first compound 0.4 µM) | relative viability ([2]; first compound 1.265 µM) | relative viability ([2]; first compound 4 µM) | relative viability ([3]; first compound 0.08 µM) | relative viability ([3]; first compound 0.253 µM) | relative viability ([3]; first compound 0.8 µM) | relative viability ([3]; first compound 2.53 µM) | relative viability ([3]; first compound 8 µM) | relative viability ([4]; first compound 0.08 µM) | relative viability ([4]; first compound 0.253 µM) | relative viability ([4]; first compound 0.8 µM) | relative viability ([4]; first compound 2.53 µM) | relative viability ([4]; first compound 8 µM)
NCI-H1793 | 0.503 | 0.491 | 0.379 | 0.369 | 0.416 | 0.714 | 0.463 | 0.51 | 0.406 | 0.216 | 0.351 | 0.318 | 0.299 | 0.351 | 0.273 | 0.432 | 0.384 | 0.394 | 0.355 | 0.381
NCI-H1915 | 0.83 | 0.789 | 0.786 | 0.789 | 0.786 | 0.844 | 0.786 | 0.713 | 0.265 | 0.162 | 0.554 | 0.496 | 0.516 | 0.56 | 0.583 | 0.288 | 0.304 | 0.315 | 0.305 | 0.255
NCI-H1944 | 1.28 | 1.02 | 1.01 | 0.996 | 1.2 | 0.766 | 0.627 | 0.39 | 0.186 | 0.123 | 0.407 | 0.334 | 0.332 | 0.36 | 0.352 | 0.235 | 0.206 | 0.226 | 0.22 | 0.174
NCI-H1975 | 1.04 | 1.18 | 0.94 | 0.998 | 0.892 | 0.636 | 0.973 | 1.54 | 1.79 | 0.756 | 0.633 | 0.591 | 0.636 | 0.561 | 0.627 | 0.433 | 0.374 | 0.358 | 0.366 | 0.375
NCI-H1993 | 0.981 | 0.931 | 0.754 | 1.06 | 0.892 | 0.756 | 0.572 | 0.424 | 0.369 | 0.405 | 0.751 | 0.605 | 0.606 | 0.797 | 0.632 | 0.517 | 0.591 | 0.522 | 0.559 | 0.601
NCI-H2085 | 1.16 | 1.12 | 1.19 | 1.09 | 1.19 | 0.989 | 0.972 | 1.07 | 0.941 | 0.603 | 0.477 | 0.456 | 0.466 | 0.453 | 0.47 | 0.243 | 0.293 | 0.243 | 0.239 | 0.255
NCI-H2087 | 0.992 | 0.917 | 1.14 | 1.02 | 1.14 | 1.3 | 1.17 | 0.604 | 0.165 | 0.128 | 0.217 | 0.215 | 0.191 | 0.212 | 0.206 | 0.85 | 0.932 | 0.833 | 0.689 | 0.613
NCI-H2126 | 0.915 | 0.919 | 0.812 | 0.852 | 0.934 | 1.02 | 1.02 | 0.767 | 0.49 | 0.369 | 0.343 | 0.359 | 0.327 | 0.39 | 0.354 | 0.727 | 0.693 | 0.71 | 0.57 | 0.501
NCI-H2170 | 0.623 | 0.607 | 0.575 | 0.632 | 0.606 | 0.9 | 0.536 | 0.544 | 0.147 | 0.112 | 0.433 | 0.388 | 0.385 | 0.397 | 0.394 | 0.634 | 0.654 | 0.663 | 0.583 | 0.468
NCI-H2347 | 1.03 | 0.679 | 0.688 | 0.799 | 0.772 | 0.904 | 0.834 | 0.536 | 0.252 | 0.242 | 0.46 | 0.385 | 0.469 | 0.422 | 0.439 | 0.325 | 0.26 | 0.346 | 0.322 | 0.273
NCI-H2405 | 0.76 | 0.708 | 0.805 | 0.895 | 0.552 | 1.05 | 0.964 | 0.557 | 0.225 | 0.245 | 0.586 | 0.507 | 0.537 | 0.557 | 0.523 | 0.234 | 0.206 | 0.214 | 0.191 | 0.215
NCI-H3122 | 1.04 | 1.06 | 1.05 | 1 | 1.02 | 0.916 | 0.485 | 0.229 | 0.132 | 0.105 | 0.225 | 0.181 | 0.181 | 0.183 | 0.187 | 0.759 | 0.996 | 0.87 | 0.961 | 0.816
PC-3 [JPC-3] | 0.877 | 0.862 | 0.874 | 0.76 | 0.753 | 0.854 | 0.964 | 0.736 | 0.328 | 0.334 | 0.516 | 0.565 | 0.565 | 0.488 | 0.485 | 1 | 1.09 | 0.985 | 0.95 | 0.864
PC-14 | 1.04 | 0.998 | 1.02 | 0.95 | 0.804 | 0.335 | 0.405 | 0.347 | 0.166 | 0.127 | 0.517 | 0.505 | 0.539 | 0.566 | 0.469 | 0.288 | 0.292 | 0.261 | 0.131 | 0.068
RERF-LC-KJ | 1.29 | 1.02 | 1.18 | 0.956 | 0.828 | 0.941 | 0.738 | 0.256 | 0.182 | 0.253 | 1.15 | 1.27 | 1.02 | 1.04 | 1.09 | 0.892 | 0.767 | 0.747 | 0.706 | 0.517

Reference: the supplement of paper PMC10307832
